Measurements as given in article PMC5513037, “Examining the influence of specificity ligands and ATP-competitive ligands on the overall effectiveness of bivalent kinase inhibitors” (Proteome Science, 2017).

Tests used:
Assay in all cases: Imatinib-matrix competition in K562 lysate
Type in all cases: binding
Details in all cases: read-out: RB50 (the source's name)
[1] = target: T1, ATR (Homo sapiens, UniProt Q13535)
T1 construct: endogenous in cells; host or cells: K562
Text: (§1) Data were visualized for further analysis using Spotfire DXP.

[2] = target: T2, TFG (Homo sapiens, UniProt Q92734)
T2 construct: endogenous in cells; host or cells: K562
Text: as §1

[3] = target: T3, RP1 (Homo sapiens, UniProt P56715)
T3 construct: endogenous in cells; host or cells: K562
Text: as §1

[4] = target: T4, SRM (Homo sapiens, UniProt P19623)
T4 construct: K562 lysate (5 mg per treatment) was preincubated; endogenous in cells; host or cells: K562 lysate
Text: as §1

[5] = target: T5, PBK (Homo sapiens, UniProt Q96KB5)
T5 construct: endogenous in cells; host or cells: K562
T5 sequence (Q96KB5 1-322): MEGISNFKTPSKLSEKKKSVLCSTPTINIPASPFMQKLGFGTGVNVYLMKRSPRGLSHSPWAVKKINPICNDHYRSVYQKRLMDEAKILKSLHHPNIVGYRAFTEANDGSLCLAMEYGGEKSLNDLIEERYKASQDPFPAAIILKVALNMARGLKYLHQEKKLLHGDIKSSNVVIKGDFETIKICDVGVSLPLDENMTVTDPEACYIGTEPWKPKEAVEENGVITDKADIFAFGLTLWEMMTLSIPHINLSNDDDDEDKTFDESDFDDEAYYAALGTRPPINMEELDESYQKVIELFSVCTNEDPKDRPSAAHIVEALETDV
Text: as §1

[6] = target: T6, RPS6KB2 (Homo sapiens, UniProt Q9UBS0)
T6 construct: endogenous in cells; host or cells: K562
Text: as §1

[7] = target: T7, TKT (Homo sapiens, UniProt P29401)
T7 construct: endogenous in cells; host or cells: K562
Text: as §1

[8] = target: T8, CDC7 (Homo sapiens, UniProt O00311)
T8 construct: endogenous in cells; host or cells: K562 lysate
Text: as §1

[9] = target: T9, TRIM33 (Homo sapiens, UniProt Q9UPN9)
T9 construct: endogenous in cells; host or cells: K562
Text: as §1

[10] = target: T10, VRK1 (Homo sapiens, UniProt Q99986)
T10 construct: endogenous in cells; host or cells: K562
T10 sequence (Q99986 1-396): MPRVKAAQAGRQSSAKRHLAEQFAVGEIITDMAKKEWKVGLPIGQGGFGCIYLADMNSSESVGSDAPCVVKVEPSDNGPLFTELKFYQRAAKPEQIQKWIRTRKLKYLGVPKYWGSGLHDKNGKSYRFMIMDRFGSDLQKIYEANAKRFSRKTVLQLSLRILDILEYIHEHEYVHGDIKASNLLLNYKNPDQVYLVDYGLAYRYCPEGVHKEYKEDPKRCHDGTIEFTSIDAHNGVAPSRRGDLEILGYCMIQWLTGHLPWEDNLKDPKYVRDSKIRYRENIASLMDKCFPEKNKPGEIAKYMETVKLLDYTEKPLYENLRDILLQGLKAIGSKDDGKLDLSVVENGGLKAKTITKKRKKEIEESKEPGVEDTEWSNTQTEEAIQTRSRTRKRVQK
Text: as §1

[11] = target: T11, BUB1B (Homo sapiens, UniProt O60566)
T11 construct: endogenous in cells; host or cells: K562
Text: as §1

[12] = target: T12, ALPK3 (Homo sapiens, UniProt Q96L96)
T12 construct: endogenous in cells; host or cells: K562
Text: as §1

[13] = target: T13, CHD5 (Homo sapiens, UniProt Q8TDI0)
T13 construct: endogenous in cells; host or cells: K562
Text: as §1

[14] = target: T14, TRRAP (Homo sapiens, UniProt Q9Y4A5)
T14 construct: endogenous in cells; host or cells: K562
Text: as §1

[15] = target: T15, SPEG (Homo sapiens, UniProt Q15772)
T15 construct: endogenous in cells; host or cells: K562
Text: as §1

[16] = target: T16, PRKDC (Homo sapiens, UniProt P78527)
T16 construct: endogenous in cells; host or cells: K562
Text: as §1

[17] = target: T17, EEF2K (Homo sapiens, UniProt O00418)
T17 construct: endogenous in cells; host or cells: K562 lysate
T17 sequence (O00418 1-725): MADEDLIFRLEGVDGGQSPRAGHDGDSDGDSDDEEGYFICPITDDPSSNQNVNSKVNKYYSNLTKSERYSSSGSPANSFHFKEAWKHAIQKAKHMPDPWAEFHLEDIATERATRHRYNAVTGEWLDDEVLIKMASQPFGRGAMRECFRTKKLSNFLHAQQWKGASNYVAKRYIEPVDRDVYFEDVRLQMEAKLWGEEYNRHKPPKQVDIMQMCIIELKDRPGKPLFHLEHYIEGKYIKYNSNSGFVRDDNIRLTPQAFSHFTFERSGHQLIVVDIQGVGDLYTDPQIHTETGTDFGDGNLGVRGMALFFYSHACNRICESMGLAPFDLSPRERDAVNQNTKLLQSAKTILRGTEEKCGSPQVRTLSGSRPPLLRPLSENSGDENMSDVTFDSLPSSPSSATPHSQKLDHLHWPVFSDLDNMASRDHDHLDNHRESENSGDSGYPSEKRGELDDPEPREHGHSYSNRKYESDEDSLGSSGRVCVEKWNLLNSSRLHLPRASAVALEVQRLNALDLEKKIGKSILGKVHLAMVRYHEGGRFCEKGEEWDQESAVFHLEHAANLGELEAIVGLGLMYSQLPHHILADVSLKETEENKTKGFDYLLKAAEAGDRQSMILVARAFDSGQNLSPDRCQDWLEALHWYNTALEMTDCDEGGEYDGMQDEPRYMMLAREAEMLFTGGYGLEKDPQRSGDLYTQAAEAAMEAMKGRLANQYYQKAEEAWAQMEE
Text: as §1

[18] = target: T18, BRD4 (Homo sapiens, UniProt O60885)
T18 construct: endogenous in cells; host or cells: K562
Text: as §1

[19] = target: T19, TRIM28 (Homo sapiens, UniProt Q13263)
T19 construct: endogenous in cells; host or cells: K562
Text: as §1

[20] = target: T20, SMG1 (Homo sapiens, UniProt Q96Q15)
T20 construct: endogenous in cells; host or cells: K562
Text: as §1

[21] = target: T21, TTN (Homo sapiens, UniProt Q8WZ42)
T21 construct: endogenous in cells; host or cells: K562
Text: as §1

[22] = target: T22, NRK (Homo sapiens, UniProt Q7Z2Y5)
T22 construct: endogenous in cells; host or cells: K562
Text: as §1

[23] = target: T23, VRK3 (Homo sapiens, UniProt Q8IV63)
T23 construct: endogenous in cells; host or cells: K562
Text: as §1

Measured: IC50

Cc1ccc(NC(=O)c2ccc(CN3CCN(C)CC3)cc2)cc1Nc1nccc(-c2cccnc2)n1 [Imatinib]
> 10 µM: all assays above
